The results in this text go back to US11602520B2, “c-Met regulatory composition and its method for treating liver disease” (priority 2020, dated 2023).

The test system of one data set is Notch-2. Kind of data set: Gene expression analysis, real-time qPCR, Notch-2 RNA. It is filed as cell-based, mice. The method, then: (§1) Normal hepatocytes of FL83B mice are divided into several groups (FL83B 1×10^4 cells/well), and treated with 10 mM acetaminophen for 24 hours respectively to make the hepatic cells in a damaged state, the acetaminophen is removed and then the hepatic cells are treated with different concentrations of the Antrodin A and/or the DMB for 24 hours. Then, the commercially available MTS cell viability analysis kit (CellTiter-Glo® One Solution Assay) is used to analyze the cell viability of each of the groups, the treatment condition of each of the groups of cells and the corresponding survival rate are shown in Table 4 to Table 6 below.
(§2) Real-time qPCR kits are used to analyze the gene expression in cells treated with different concentrations of the Antrodin A and the DMB in Example 2, and the results are shown in Tables 7 to 9 below.
(In general: In qPCR the cycle at which signal appears reflects the starting amount.)

The test system of data set [1] is Normal hepatocytes of FL83B mice treated with 10 mM acetaminophen (damaged hepatic cells). Description: Cell viability analysis (2), hepatocytes damaged with 10 mM acetaminophen. Format: cell-based. Particulars: after acetaminophen damage. On the procedure:
as §1

Data set [2] can be described thus: Cell viability analysis (1), normal hepatocytes, MTS kit. Format: cell-based, mice. Particulars: mouse, FL83B normal hepatocytes, 24 hours, read-out: Cell viability (%, relative to the blank group). On the procedure: (§3) Normal hepatocytes of FL83B mice are divided into several groups (FL83B 1×10^4 cells/well), an amount of cells in each of the groups is treated under different conditions respectively and cultured for 24 hours. Then, the commercially available MTS cell viability analysis kit (CellTiter-Glo® One Solution Assay) is used to analyze the cell viability of each of the groups, the treatment condition of each of the groups of cells and the corresponding survival rate are shown in Table 1 to Table 3 below.

The test system of data set [3] is Normal hepatocytes of FL83B mice. The data set is described as above. Format: cell-based. Conditions: for Cell viability (%, relative to the blank group): 24 hours. On the procedure: as §3
Another data set deals with c-Met. Kind of data set: Gene expression analysis, real-time qPCR, c-Met. It is filed as cell-based, mice. The method, then: as §1, §2

One may read the viability as a read-out of living cells in per cent, often relative to untreated cells. In the case of `COc1cc(C)c(OC)c2c1OCO2` [DMB, 4,7-Dimethoxy-5-methyl-1,3-benzodioxole], in the data set on Notch-2, the “expression level of Notch in damaged hepatic cells (in words)” value was “increase the expression levels of c-Met and Notch”. The viability at 2.5 ppm in data set [1] (Mus musculus, FL83B, DMB 2.5 ppm, 24 hours, read-out: Cell viability (%, relative to the blank group)) worked out at 114 ± 3.9%. Also, the viability at 5 ppm in data set [1] (Mus musculus, FL83B, DMB 5 ppm, 24 hours, read-out: Cell viability (%, relative to the blank group)) came to 104 ± 4.4%. The viability at 10 ppm in data set [1] (Mus musculus, FL83B, DMB 10 ppm, 24 hours, read-out: Cell viability (%, relative to the blank group)) stood at 78.2 ± 8.8%. In addition, the viability at 17.5 ppm in data set [1] (Mus musculus, FL83B, DMB 17.5 ppm, 24 hours, read-out: Cell viability (%, relative to the blank group)) was 103 ± 7.7%. Also, the “repair of damaged hepatic cells (in words)” value in data set [1] was “capable of repairing the damaged hepatic cells and increasing the activity of the hepatic cells”. The viability at 24 h, 1.25 ppm in data set [2] (DMB 1.25 ppm) came out at 112 ± 2.4%. In addition, the viability at 24 h, 2.5 ppm in data set [2] (DMB 2.5 ppm) was 114 ± 1.5%. Further, the viability at 24 h, 5 ppm in data set [2] (DMB 5 ppm) came out at 115 ± 2%. In data set [2] (DMB 10 ppm), the viability at 24 h, 10 ppm was 113 ± 3.4%. Also, the viability at 24 h, 20 ppm in data set [2] (DMB 20 ppm) turned out to be 111 ± 4%. Besides, the “toxicity to the normal hepatic cells (in words)” value in data set [3] (various concentrations) was “does not cause toxicity to the normal hepatic cells”. In addition, in the data set with c-Met, the “expression level of c-Met in damaged hepatic cells (in words)” value was “increase the expression levels of c-Met and Notch”.

In the case of `CC(C)=CCOc1ccc(C2=C(CC(C)C)C(=O)OC2=O)cc1` [Antrodin A], the “expression level of Notch in damaged hepatic cells (in words)” value in the data set on Notch-2 is “increase the expression levels of c-Met and Notch”. Besides, the “repair of damaged hepatic cells (in words)” value in data set [1] was “capable of repairing the damaged hepatic cells and increasing the activity of the hepatic cells”. The “Cell viability (%, relative to the blank group)” value in data set [1] (Antrodin A 17.5 ppm, 24 hours) was 101.9 ± 10.7%; in data set [1] (Antrodin A 35 ppm, 24 hours), 90.2 ± 9.9%; in data set [1] (Antrodin A 70 ppm, 24 hours) it was 102.7 ± 3.3%; in data set [3] (Antrodin A 8.75 ppm), 95.8 ± 4.8%; in data set [3] (Antrodin A 17.5 ppm), 107.1 ± 1.2%; in data set [3] (Antrodin A 35 ppm), 106.8 ± 6.5%. The “Cell viability (%, relative to the blank group)” value in data set [3] (Antrodin A 70 ppm) was 108.5 ± 5.7%; in data set [3] (Antrodin A 140 ppm) it was 50.8 ± 4.4%. For the same compound, the “activity and survival rate of the normal hepatic cells (in words)” value in data set [3] (concentration of 8.75 to 70 ppm) was “capable of effectively maintaining and enhancing the activity and survival rate of the normal hepatic cells”. Further, the “toxicity to hepatic cells (in words)” value in data set [3] (concentration of 140 ppm) is given as “toxic to hepatic cells”. In addition, the “expression level of c-Met in damaged hepatic cells (in words)” value in the data set on c-Met is “increase the expression levels of c-Met and Notch”.
